# Assay results published in patent US20240360415A1, “MUSCLE CELLS DIFFERENTIATED FROM PLURIPOTENT CELLS, METHODS OF PRODUCING SAME AND USE THEREOF” (ALEPH FARMS LTD., priority 2021, published 2024).
# System: Bovine pluripotent stem cells (PSCs)
# Assay: Immunofluorescence staining of Myosin heavy chain (MF-20 antibody) after total of 11 days of differentiation
# Type: cell-based
# Conditions: 3D suspension 4 days with factors (CHIR 10 μM; Activin A 20 ng/ml or TGFβ 2 ng/ml), then 7 days 2D serum-free without factors; FIG. 3A-3C
# Method: Bovine skeletal muscle cells in 2D culture were subjected to immunofluorescence analysis as following: The cells were fixed using 4% Paraformaldehyde (PFA; […] Nuclei were stained using […] of DAPI (Sigma). The imaging was performed using EVOS FL Auto 2 Fluorescent Microscopy (ThermoFisher). Bovine pluripotent stem cells (PSCs) were grown in 2D and/or 3D culture. […] The suspension culture conditions (“3D culture conditions”) include ultra-low adherent (ULA) 6-well plate (Corning) placed at 38.5° C. under 5% CO2 and humidity of >75% under rotation. Medium was refreshed using the skeletal Muscle Precursor medium (without RI) and the formed aggregates were allowed to differentiate for a total of 4 days. The aggregates comprising skeletal muscle committed cells were collected and seeded on in a tissue culture Vitronectin (0.005 mg/ml) pre-coated plate (“2D conditions”) in serum free growth medium. […] Medium was refreshed using the skeletal Muscle Precursor medium (without RI) and the formed aggregates were allowed to differentiate for a total of 4 days. After 4 days, the cells comprising skeletal muscle committed cells were collected and seeded in a 2D culture conditions as described for the aggregate obtained from 3D culture conditions described above.
smiles,measurement,value
"Cc1cnc(-c2cnc(NCCNc3ccc(C#N)cn3)nc2-c2ccc(Cl)cc2Cl)[nH]1 [CHIR-99021, 6-[[2-[[4-(2,4-Dichlorophenyl)-5-(5-methyl-1H-imidazol-2-yl)-2-pyrimidinyl]amino]ethyl]amino]-3-pyridinecarbonitrile]",Myosin heavy chain positive (skeletal muscle) cells by immunofluorescence,no Myosin positive cells
